The target of assay [1] is T1, wild type human RORγt LBD (Homo sapiens, UniProt P51449).
T1 construct: expressed in transfected cells; host or cells: HEK293T
T1 sequence (P51449 258-518): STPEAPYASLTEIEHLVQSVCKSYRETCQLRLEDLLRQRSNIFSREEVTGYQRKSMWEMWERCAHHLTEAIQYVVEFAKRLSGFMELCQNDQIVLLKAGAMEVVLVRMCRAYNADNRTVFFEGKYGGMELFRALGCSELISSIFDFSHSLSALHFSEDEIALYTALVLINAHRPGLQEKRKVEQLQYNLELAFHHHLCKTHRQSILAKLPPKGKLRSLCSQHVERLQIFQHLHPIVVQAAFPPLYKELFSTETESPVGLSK
The experiment in a line: RORγt (LBD) Reporter Assay (GAL4-luciferase, HEK293T cells). Type of assay: cell-based. As to conditions: for inhibition at 6 µM: HEK-293T, read-out: RORγt (LBD) Reporter Assay, % inhibition @ 6 µM, 6 µM compound concentration; for RORγt (LBD) Reporter Assay, % inhibition @ 6 µM: 6 µM compound concentration. In general terms: In a reporter assay the amount or activity of a reporter protein is the signal.

Assay [2] concerns the target T2, wild type human RORγt ligand binding domain (RORyt LBD) (Homo sapiens, UniProt P51449).
T2 construct: His-tag (N); TurboTEV protease cleavage site (ENLYFQG) (N); made in house; host or cells: E. coli (pHIS1, modified pET vector)
T2 sequence (P51449 258-518): T1 sequence (P51449 258-518)
Kind of assay: RORγt ThermoFluor assay (thermal shift, binding affinity KD). (In general: DSF heats the sample and reads unfolding from a dye or from intrinsic fluorescence.)

Setting [3] is: HEK293T cells, value after the comma with ∼, > or < could not be included in the average.

Where a name gives a salt, the structure may show the parent alone. Read-outs that look alike come from different tables or passages of the source.

What is called IC50 is the concentration that inhibits the measured activity by half. One may read the Kd as the constant that tells how readily two partners part at equilibrium. For `COc1ccc(C(O)(c2cccnc2)c2ccc3nc(OC)c(Cc4ccc(-n5cccn5)cc4)c(Cl)c3c2)cc1OC` (single isomer, unassigned) [Example 159b, (3-(4-(1H-Pyrazol-1-yl)benzyl)-4-chloro-2-methoxyquinolin-6-yl)(3,4-dimethoxyphenyl)(pyridin-3-yl)methanol], in assay [1] (HEK293T cells), half-maximal inhibition (IC50) was put at 370 nM and the inhibition at 6 µM is 107%. The Kd in assay [2] was 510 nM.
`COc1nc2ccc(C(O)(c3ccccc3)C3CCN(C(C)=O)CC3)cc2c(Cl)c1Cc1ccc(-n2cncn2)cc1` (single isomer, unassigned) [Example 18b, 1-(4-((3-(4-(1H-1,2,4-Triazol-1-yl)benzyl)-4-chloro-2-methoxyquinolin-6-yl)(hydroxy)(phenyl)methyl)piperidin-1-yl)ethanone]: the IC50 in assay [1] (setting [3]) stood at 83 nM. For the same compound, the inhibition at 6 µM in assay [1] was 99%. For the same compound, the Kd in assay [2] was 8 nM.
`COc1nc2ccc(C(O)(c3cnnn3C)C3CCN(C(C)=O)CC3)cc2c(Cl)c1Cc1ccc(C(F)(F)F)cc1` (racemic) [Example 74a, 1-(4-((4-Chloro-2-methoxy-3-(4-(trifluoromethyl)benzyl)quinolin-6-yl)(hydroxy)(1-methyl-1H-1,2,3-triazol-5-yl)methyl)piperidin-1-yl)ethanone] came in with an IC50 in assay [1] (setting [3]) of about 10 nM. For the same compound, the inhibition at 6 µM in assay [1] was found to be 98%. In addition, in assay [2], the Kd turned out to be 3.1 nM.
With `COc1c(Cc2ccccc2)c(C(F)(F)F)nc2ccc(C(O)(c3ccc(C(F)(F)F)nc3)c3cncn3C)cc12` (centres unmarked) [Example 106a, (3-Benzyl-4-methoxy-2-(trifluoromethyl)quinolin-6-yl)(1-methyl-1H-imidazol-5-yl)(6-(trifluoromethyl)pyridin-3-yl)methanol•TFA], the inhibition at 6 µM in assay [1] was determined as 84%. For the same compound, the Kd in assay [2] came out at 48 nM.
In assay [1] (setting [3]), `CC(=O)N1CCC(C(O)(c2ccccc2)c2ccc3nc(Cl)c(Cc4cncnc4)c(OC(F)F)c3c2)CC1` (single isomer, unassigned) [Example 73b, 1-(4-((2-Chloro-4-(difluoromethoxy)-3-(pyrimidin-5-ylmethyl)quinolin-6-yl)(hydroxy)(phenyl)methyl)piperidin-1-yl)ethanone] displayed an IC50 of 700 nM. The inhibition at 6 µM in assay [1] is 35%. For the same compound, in assay [2], the dissociation constant Kd is 44 nM.
The compound `Cn1cncc1C(O)(c1ccc(Cl)cc1)c1ccc2nc(C(F)(F)F)c(Cc3ccccc3)c(Cl)c2c1` (centres unmarked) [Example 100, (3-benzyl-4-chloro-2-(trifluoromethyl)quinolin-6-yl)(4-chlorophenyl)(1-methyl-1H-imidazol-5-yl)methanol•TFA] returned an IC50 in assay [1] (setting [3]) of 220 nM. Also, in assay [1], the inhibition at 6 µM amounted to 78%. Also, the Kd in assay [2] is 25 nM.
For `COc1nc2ccc(C(O)(c3cncn3C)c3cnnn3C)cc2c(Cl)c1Cc1ccc(C(F)(F)F)cc1` (racemic) [Example 89a, (4-Chloro-2-methoxy-3-(4-(trifluoromethyl)benzyl)quinolin-6-yl)(1-methyl-1H-1,2,3-triazol-5-yl)(1-methyl-1H-imidazol-5-yl)methanol], in that order: 4.8 nM, 98% and 0.29 nM.
`COc1nc2ccc(C(O)(c3oc(C)nc3C)c3cnnn3C)cc2c(Cl)c1Cc1ccc(C(F)(F)F)cc1` (centres unmarked) [Example 156a, (4-chloro-2-methoxy-3-(4-(trifluoromethyl)benzyl)quinolin-6-yl)(2,4-dimethylozazol-5-yl)(1-methyl-1H-1,2,3-triazol-5-yl)methanol]: in assay [1] (HEK293T cells), the IC50 is 6.6 nM and the inhibition at 6 µM worked out at 94%. Besides, the Kd in assay [2] came to 0.63 nM.
For `COc1nc2ccc(C(O)(c3ncccn3)c3cncn3C)cc2c(Cl)c1Cc1ccc(-n2cccn2)cc1` (single isomer, unassigned) [Example 131c, {4-Chloro-2-methoxy-3-[4-(1H-pyrazol-1-yl)benzyl]quinolin-6-yl}(1-methyl-1H-imidazol-5-yl)pyrimidin-2-ylmethanol], in assay [1] (HEK293T cells), the “RORγt (LBD) Reporter Assay, % inhibition @ 6 µM” value amounted to 100% and half-maximal inhibition (IC50) required 1600 nM. In addition, the Kd in assay [2] worked out at 220 nM.
`COc1nc2ccc(C(O)(c3sc(C)nc3C)c3cnnn3C)cc2c(Cl)c1Cc1ccc(-n2cccn2)cc1` (centres unmarked) [Example 21a, (3-(4-(1H-Pyrazol-1-yl)benzyl)4-chloro-2-methoxyquinolin-6-yl)(2,4-dimethylthiazol-5-yl)(1-methyl-1H-1,2,3-triazol-5-yl)methanol] gave a concentration for half-maximal inhibition (IC50) in assay [1] (setting [3]) of 6 nM. Further, in assay [1], the inhibition at 6 µM amounted to 101%. Moreover, the Kd in assay [2] was 0.31 nM.
Regarding `COCCN(C)c1nc2ccc(C(O)(c3ccc(Cl)cc3)c3cncn3C)cc2c(Cl)c1Cc1ccc(-n2cccn2)cc1` (centres unmarked) [Example 127, {4-Chloro-2-[(2-methoxyethyl)(methyl)amino]-3-[4-(1H-pyrazol-1-yl)benzyl]quinolin-6-yl}(4-chlorophenyl)(1-methyl-1H-imidazol-5-yl)methanol], in assay [1] (HEK293T cells), the IC50 amounted to 240 nM and the inhibition at 6 µM came out at 101%. Further, the Kd in assay [2] turned out to be 350 nM.
Turning to `COc1nc2ccc(C(O)(c3ccc(C)nc3C)c3cnnn3C)cc2c(C#N)c1Cc1ccc(C(F)(F)F)nc1` (single isomer, unassigned) [Example 41c, 6-((2,6-Dimethylpyridin-3-yl)(hydroxy)(1-methyl-1H-1,2,3-triazol-5-yl)methyl)-2-methoxy-3-((6-(trifluoromethyl)pyridin-3-yl)methyl)quinoline-4-carbonitrile], in assay [1], the “RORγt (LBD) Reporter Assay, % inhibition @ 6 µM” value is given as 99%. In assay [1] (setting [3]), the midpoint of inhibition, the IC50, lay at 5.9 nM. The dissociation constant Kd in assay [2] stood at 6.4 nM.
Turning to `Cn1cncc1C(O)(c1ccc(C(F)(F)F)nc1)c1ccc2nc(N3CCOCC3)c(Cc3ccc(-n4cccn4)cc3)c(Cl)c2c1` (single isomer, unassigned) [Example 146b, {4-Chloro-2-morpholin-4-yl-3-[4-(1H-pyrazol-1-yl)benzyl]quinolin-6-yl}(1-methyl-1H-imidazol-5-yl)[6-(trifluoromethyl)pyridin-3-yl]methanol], in assay [1] (HEK293T cells), inhibition was half-maximal at 210 nM (IC50) and the inhibition at 6 µM amounted to 103%. Also, in assay [2], the Kd came to 84 nM.
Regarding `Cc1cc(C(O)(c2ccc(C(F)(F)F)nc2)c2cncn2C)cc2c(Cl)c(Cc3ccc(-n4cccn4)cc3)c(N3CCC3)nc12` (centres unmarked) [Example 137a, {2-Azetidin-1-yl-4-chloro-8-methyl-3-[4-(1H-pyrazol-1-yl)benzyl]quinolin-6-yl}(1-methyl-1H-imidazol-5-yl)[6-(trifluoromethyl)pyridin-3-yl]methanol], in assay [1] (HEK293T cells), the IC50 was 170 nM and the inhibition at 6 µM is 97%. Besides, the Kd in assay [2] came to 9 nM.
In assay [1] (setting [3]), `CC(=O)N1CCC(C(O)(c2ccccc2)c2ccc3nc(Cl)c(Cc4cncnc4)c(OC(F)F)c3c2)CC1` (racemic) [Example 73a, 1-(4-((2-Chloro-4-(difluoromethoxy)-3-(pyrimidin-5-ylmethyl)quinolin-6-yl)(hydroxy)(phenyl)methyl)piperidin-1-yl)ethanone] returned an IC50 of over 6000 nM. In assay [1], the inhibition at 6 µM amounted to 45%. Moreover, the Kd in assay [2] was found to be 590 nM.
In the case of `COc1nc2ccc(C(O)(c3ccc(C)nc3C)C3CN(C(C)=O)C3)cc2c(Cl)c1Cc1ccc(C(F)(F)F)cc1` (racemic) [Example 87a, 1-(3-((4-Chloro-2-methoxy-3-(4-(trifluoromethyl)benzyl)quinolin-6-yl)(2,6-dimethylpyridin-3-yl)(hydroxy)methyl)azetidin-1-yl)ethanone], the IC50 in assay [1] (setting [3]) is 6.8 nM. For the same compound, the inhibition at 6 µM in assay [1] is 100%. Further, the dissociation constant Kd in assay [2] was 1.8 nM.

The values above are taken from patent EP3057951B1, “METHYLENE LINKED QUINOLINYL MODULATORS OF ROR-GAMMA-T” (Janssen Pharmaceutica NV, priority 2013, dated 2015).
